US6914045B2, “Glycopeptide antibiotics” (Wyeth Holdings Corporation, priority 2001, dated 2005)
Values after ≈ are worked out from the molar mass of the structure shown.

Columns and labels:
Experiment in all cases: in vitro antibacterial evaluation, MIC by broth dilution
Format in all cases: cell-based
Settings in all cases: broth dilution, 18 hours at 35° C.
Streptococcus sp. = test system: Streptococcus sp.
How it was run: (§1)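 Broth dilution per NCCLS standard M7-A2 in Muller-Hinton II […], with an inoculum of 5×10^5 CFU/mL and antibiotic spanning 64-0.06 μg/mL. The MIC is the lowest concentration that inhibits growth of the organism.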

Enterococcus sp. = test system: Enterococcus sp.
How it was run: as §1

Staphylococcus sp. = test system: Staphylococcus sp.
How it was run: as §1

Escherichia coli = test system: Escherichia coli
How it was run: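 Broth dilution in Muller-Hinton II medium per NCCLS standard M7-A2, with an inoculum of 5×10^5 CFU/mL and antibiotic tested over 64-0.06 μg/mL. MIC was taken as the lowest concentration inhibiting visible growth.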

For `CC(c1ccccc1)C1NC(=O)CNC(=O)C(CO)NC(=O)C(C(O)C2CNC(=N)N2C2OC(CO)C(O)C(O)C2O)NC(=O)C(C(O)C2CNC(=N)N2)NC(=O)C(Cc2ccc3oc(SCc4ccc5ccccc5c4)nc3c2)NC1=O` (stereo not shown) [Example 46], the “MIC Streptococcus pneumoniae (ATCC 6301)” value (Streptococcus sp.; strain ATCC 6301) was 8 mg/L (≈ 6.85 µM), the “MIC Streptococcus pneumoniae (GC 1894)” value (Streptococcus sp.; strain GC 1894) was 8 mg/L (≈ 6.85 µM) and the “MIC Streptococcus pyogenes (GC 4563)” value (Streptococcus sp.; strain GC 4563) was 1 mg/L (≈ 0.856 µM). The “MIC Streptococcus agalactiae (GC 4564)” value (Streptococcus sp.; strain GC 4564) was 8 mg/L (≈ 6.85 µM), the “MIC Streptococcus pneumoniae (GC 4565)” value (Streptococcus sp.; strain GC 4565) was 8 mg/L (≈ 6.85 µM) and the “MIC Enterococcus faecalis (ATCC 29212)” value (Enterococcus sp.; strain ATCC 29212) was 8 mg/L (≈ 6.85 µM). For the same molecule, the “MIC Enterococcus faecalis (GC 2242)” value (Enterococcus sp.; strain GC 2242) was 8 mg/L (≈ 6.85 µM), the “MIC Enterococcus faecium (GC 2243)” value (Enterococcus sp.; strain GC 2243) was 4 mg/L (≈ 3.42 µM) and the “MIC Enterococcus faecalis (GC 2691)” value (Enterococcus sp.; strain GC 2691) was 16 mg/L (≈ 13.7 µM). The “MIC Enterococcus faecalis (GC 3059)” value (Enterococcus sp.; strain GC 3059) was 32 mg/L (≈ 27.4 µM), the “MIC Enterococcus faecalis (GC 4552)” value (Enterococcus sp.; strain GC 4552) was 8 mg/L (≈ 6.85 µM) and the “MIC Enterococcus faecalis (GC 4553)” value (Enterococcus sp.; strain GC 4553) was 4 mg/L (≈ 3.42 µM). The “MIC Enterococcus faecalis (GC 4554)” value (Enterococcus sp.; strain GC 4554) was 16 mg/L (≈ 13.7 µM), the “MIC Enterococcus faecium (GC 4556)” value (Enterococcus sp.; strain GC 4556) was 16 mg/L (≈ 13.7 µM) and the “MIC Enterococcus faecium (GC 4557)” value (Enterococcus sp.; strain GC 4557) was 8 mg/L (≈ 6.85 µM). The “MIC Enterococcus avium (GC 4558)” value (Enterococcus sp.; strain GC 4558) was 4 mg/L (≈ 3.42 µM), the “MIC Enterococcus faecalis (GC 6189)” value (Enterococcus sp.; strain GC 6189) was 16 mg/L (≈ 13.7 µM) and the “MIC Staphylococcus aureus (ATCC 29213)” value (Staphylococcus sp.; strain ATCC 29213) was 8 mg/L (≈ 6.85 µM). The “MIC Staphylococcus aureus (GC 1131)” value (Staphylococcus sp.; strain GC 1131) was 8 mg/L (≈ 6.85 µM), the “MIC Staphylococcus aureus (GC 3051)” value (Staphylococcus sp.; strain GC 3051) was 8 mg/L (≈ 6.85 µM) and the “MIC Staphylococcus aureus (GC 3053)” value (Staphylococcus sp.; strain GC 3053) was 8 mg/L (≈ 6.85 µM). For the same molecule, the “MIC Staphylococcus aureus (GC 4541)” value (Staphylococcus sp.; strain GC 4541) was 8 mg/L (≈ 6.85 µM), the “MIC Staphylococcus aureus (GC 4542)” value (Staphylococcus sp.; strain GC 4542) was 8 mg/L (≈ 6.85 µM) and the “MIC Staphylococcus aureus-SMITH (GC 4543)” value (Staphylococcus sp.; strain GC 4543) was 4 mg/L (≈ 3.42 µM). The “MIC Staphylococcus aureus (GC 4544)” value (Staphylococcus sp.; strain GC 4544) was 8 mg/L (≈ 6.85 µM), the “MIC Staphylococcus aureus (GC 4545)” value (Staphylococcus sp.; strain GC 4545) was 8 mg/L (≈ 6.85 µM) and the “MIC Staphylococcus haemolyticus (GC 4546)” value (Staphylococcus sp.; strain GC 4546) was 8 mg/L (≈ 6.85 µM). The “MIC Coagulase Negative Staphylococcus (GC 4547)” value (Staphylococcus sp.; strain GC 4547) was 4 mg/L (≈ 3.42 µM), the “MIC Coagulase Negative Staphylococcus (GC 4548)” value (Staphylococcus sp.; strain GC 4548) was 8 mg/L (≈ 6.85 µM) and the “MIC Coagulase Negative Staphylococcus (GC 4549)” value (Staphylococcus sp.; strain GC 4549) was 2 mg/L (≈ 1.71 µM). The “MIC Coagulase Negative Staphylococcus (GC 4551)” value (Staphylococcus sp.; strain GC 4551) was 4 mg/L (≈ 3.42 µM), the “MIC Escherichia coli (ATCC 25922)” value (Escherichia coli; strain ATCC 25922) was 64 mg/L (≈ 54.8 µM) and the “MIC Escherichia coli (GC 4559)” value (Escherichia coli; strain GC 4559) was 64 mg/L (≈ 54.8 µM). The “MIC Escherichia coli (GC 4560)” value (Escherichia coli; strain GC 4560) was 16 mg/L (≈ 13.7 µM).
